The source of these data is patent publication US5712300A, “Hydroxamic acid derivatives useful for the treatment of diseases related to connective tissue degradation” (priority 1997, dated 1998).

What all share (type): biochemical
In one assay the target is T1, Collagenase (Homo sapiens, UniProt P03956).
T1 sequence (P03956 100-469): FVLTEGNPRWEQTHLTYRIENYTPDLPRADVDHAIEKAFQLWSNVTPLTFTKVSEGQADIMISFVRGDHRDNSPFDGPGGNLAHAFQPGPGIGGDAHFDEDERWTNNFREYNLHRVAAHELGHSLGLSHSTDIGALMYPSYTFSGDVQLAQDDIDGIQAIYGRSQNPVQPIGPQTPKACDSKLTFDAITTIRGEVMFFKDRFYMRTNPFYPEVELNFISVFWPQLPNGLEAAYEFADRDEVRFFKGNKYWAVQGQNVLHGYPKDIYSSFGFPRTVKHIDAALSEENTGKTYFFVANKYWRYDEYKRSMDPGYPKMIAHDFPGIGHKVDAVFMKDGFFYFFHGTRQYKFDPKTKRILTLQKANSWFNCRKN
Put plainly: MMP inhibition by particle concentration fluorescence technique (collagenase). The conditions noted are these: pH 7.5; 15 min enzyme preincubation; substrate 1-3 h at room temperature; read-out: MMP Inhibition Constants, Collagenase Ki. The procedure:
(§1) Inhibitory activity is evaluated in one or more of the MMP enzymes (stromelysin, gelatinase, and collagenase) in vitro using a particle concentration fluorescence techniques. An inhibitor binds to MMP enzymes prevents the degradation of a substrate of stromelysin, gelatinase, or collagenase. The substrate is attached with a fluorescein and a biotin. The intact substrate then binds to an avidin-coated particle via the biotin moiety. Once the particle is washed and dried, a fluorescent signal is generated since the fluorescent group is attached to the particle. Without an inhibitor present, the substrate is degraded by MMP enzymes and the fluorescein group is removed, therefore, no fluorescent signal can be detected. Testing compounds are dissolved in DMSO to the desired concentration, then the solutions are diluted to 1:5 with MMP buffer (50 mM Tris-HCl, pH 7.5; 150 mM NaCl; 0.02% NAN3). Serial two-fold dilutions of each compound are prepared. A concentrated, activated enzyme solution is transferred into each plate of the testing compounds, and the mixture is incubated at room temperature for 15 minutes. Thawed MMP substrate is then added into all plates, and the plates are incubate in the dark for 1-3 hours at room temperature. At this point, the substrate mixture is reacted with 0.1% avidin-coated polystyrene particles.

Another assay addresses Gelatinase. Put plainly: MMP inhibition by particle concentration fluorescence technique (gelatinase). To be noted: pH 7.5; 15 min enzyme preincubation; substrate 1-3 h at room temperature; read-out: MMP Inhibition Constants, Gelatinase Ki. The procedure: as §1
The next assay addresses Stromelysin (Homo sapiens, UniProt P08254). Nature of the assay: MMP inhibition by particle concentration fluorescence technique (stromelysin). To be noted: pH 7.5; 15 min enzyme preincubation; substrate 1-3 h at room temperature; read-out: MMP Inhibition Constants, Stromelysin Ki. The source says:
An inhibitor binds to MMP enzymes prevents the degradation of a substrate of stromelysin, gelatinase, or collagenase. The substrate is attached with a fluorescein and a biotin. The intact substrate then binds to an avidin-coated particle via the biotin moiety. Once the particle is washed and dried, a fluorescent signal is generated since the fluorescent group is attached to the particle. Without an inhibitor present, the substrate is degraded by MMP enzymes and the fluorescein group is removed, therefore, no fluorescent signal can be detected. […] Serial two-fold dilutions of each compound are prepared. A concentrated, activated enzyme solution is transferred into each plate of the testing compounds, and the mixture is incubated at room temperature for 15 minutes.

Stromelysin, sequence (P08254 100-477): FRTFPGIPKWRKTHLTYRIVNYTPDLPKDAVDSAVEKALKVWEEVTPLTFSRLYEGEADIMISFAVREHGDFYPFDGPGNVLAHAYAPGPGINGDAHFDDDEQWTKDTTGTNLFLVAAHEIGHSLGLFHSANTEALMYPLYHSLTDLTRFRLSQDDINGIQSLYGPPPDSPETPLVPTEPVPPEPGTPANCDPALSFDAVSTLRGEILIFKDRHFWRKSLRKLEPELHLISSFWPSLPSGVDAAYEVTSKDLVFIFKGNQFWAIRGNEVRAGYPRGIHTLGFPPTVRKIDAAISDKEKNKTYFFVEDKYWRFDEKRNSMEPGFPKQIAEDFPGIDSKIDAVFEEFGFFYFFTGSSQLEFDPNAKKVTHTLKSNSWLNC

For `CC(C)C[C@@]1([C@H](CCN2C(=O)c3ccccc3C2=O)C(=O)NO)CCN(CCc2ccc(F)cc2)C1=O` (relative stereo) [Example 72, 1,3-Dihydro-N-hydroxy-α-[3-(2-methylpropyl)-2-oxo-1-[2-(4-fluorophenyl)ethyl]-3-pyrrolidinyl]-1,3-dioxo-2H-isoindole-2-butanamide], the Ki (commonly the dissociation constant of the complex between target and ligand, obtained from inhibition or displacement) on Collagenase turned out to be 39 nM; on Gelatinase it was 83 nM; on Stromelysin it was 640 nM.

`CC(C)C[C@@]1([C@@H](CCNC(=O)c2ccc(F)cc2)C(=O)NO)CCN(CCc2ccccc2)C1=O` (relative stereo) [Example 75, α-[2-[(4-Fluorobenzoyl)amino]ethyl]-N-hydroxy-3-(2-methylpropyl)-2-oxo-1-(2-phenylethyl)-3-pyrrolidineacetamide]: the results for the Ki on Collagenase, on Gelatinase and on Stromelysin were 74 nM, 264 nM and 295 nM, respectively.

`CC(C)C[C@@]1([C@@H](CCNC(=O)c2cccc([N+](=O)[O-])c2)C(=O)NO)CCN(CCc2ccccc2)C1=O` (relative stereo) [Example 76, N-Hydroxy-3-(2-methylpropyl)-α-[2-[(3-nitrobenzoyl)amino]ethyl]-2-oxo-1-(2-phenylethyl)-3-pyrrolidineacetamide]: the figures for the Ki at Collagenase, at Gelatinase and at Stromelysin were 298 nM, 3300 nM and 10800 nM, respectively.

Consider `CC(C)C[C@@]1([C@@H](CCNC(=O)c2cccc(F)c2)C(=O)NO)CCN(CCc2ccc(F)cc2)C1=O` (relative stereo) [Example 78, α-[2-[(3-Fluorobenzoyl)amino]ethyl]-1-[2-(4-fluorophenyl)ethyl]-N-hydroxy-3-(2-methylpropyl)-2-oxo-3-pyrrolidineacetamide], for which the inhibitory constant (Ki) on Collagenase turned out to be 18 nM; at Gelatinase, 278 nM; on Stromelysin, 696 nM.

Turning to `CC(C)C[C@@]1([C@@H](CCNC(=O)c2ccc(-c3ccccc3)cc2)C(=O)NO)CCN(CCc2ccccc2)C1=O` (relative stereo) [Example 79, α-[2-[(4-Biphenylcarbonyl)amino]ethyl]-N-hydroxy-3-(2-methylpropyl)-2-oxo-1-(2-phenylethyl)-3-pyrrolidineacetamide], the inhibition constant Ki at Collagenase stood at 339 nM; at Gelatinase, 1.77 nM; on Stromelysin it was 38 nM.

`COc1ccc(S(=O)(=O)NCC[C@@H](C(=O)NO)[C@]2(CC(C)C)CCN(CCc3ccccc3)C2=O)cc1` (relative stereo) [Example 82, N-Hydroxy-α-[2-[[(4-methoxyphenyl)sulfonyl]amino]ethyl]-3-(2-methylpropyl)-2-oxo-1-(2-phenylethyl)-3-pyrrolidineacetamide]: the Ki worked out at 2400 nM at Collagenase, 878 nM at Gelatinase and 379 nM on Stromelysin.

Consider `CC(C)C[C@@]1([C@@H](CCNS(=O)(=O)c2ccccc2)C(=O)NO)CCN(CCc2ccccc2)C1=O` (relative stereo) [Example 83, N-Hydroxy-3-(2-methylpropyl)-2-oxo-1-(2-phenylethyl)-α-[2-[(phenylsulfonyl)amino]ethyl]-3-pyrrolidineacetamide], for which the Ki at Collagenase was 17000 nM; on Gelatinase, 580 nM; at Stromelysin it was 107 nM.

Take `CC(C)C[C@@]1([C@@H](CCN2Cc3ccccc3C2=O)C(=O)NO)CCN(CCc2ccccc2)C1=O` (relative stereo) [Example 86, 1,3-Dihydro-N-hydroxy-α-[8-(2-methylpropyl)-2-oxo-1-(2-phenylethyl)-3-pyrrolidinyl]-1-oxo-2H-isoindole-2-butanamide]: the values for the Ki on Collagenase, on Gelatinase and at Stromelysin were 647 nM, 46 nM and 102 nM, respectively.

On to `COc1ccc(S(=O)(=O)NC[C@H](C(=O)NO)[C@]2(CC(C)C)CCN(CCc3ccccc3)C2=O)cc1` (relative stereo) [Example 90, N-Hydroxy-α-[[[(4-methoxyphenyl)sulfonyl]amino]methyl]-3-(2-methylpropyl)-2-oxo-1-(2-phenylethyl)-3-pyrrolidineacetamide], for which the Ki on Collagenase came out at 52 nM; on Gelatinase, 624 nM; on Stromelysin it was 1770 nM.

In the case of `CC(C)C[C@@]1([C@@H](NS(=O)(=O)c2ccc(F)cc2)C(=O)NO)CCN(CCc2ccccc2)C1=O` (relative stereo) [Example 92, α-[[(4-Fluorophenyl)sulfonyl]amino]-N-hydroxy-3-(2-methylpropyl)-2-oxo-1-(2-phenylethyl)-3-pyrrolidineacetamide], the Ki was found to be 370 nM at Collagenase, 273 nM at Gelatinase and 309 nM at Stromelysin.

For the compound `CC(C)C[C@@]1([C@H](NS(=O)(=O)c2ccc(F)cc2)C(=O)NO)CCN(CCc2ccccc2)C1=O` (relative stereo) [Example 93, α-[[(4-Fluorophenyl)sulfonyl]amino]-N-hydroxy-3-(2-methylpropyl)-2-oxo-1-(2-phenylethyl)-3-pyrrolidineacetamide], the Ki amounted to 98 nM on Collagenase, 1100 nM on Gelatinase and 2080 nM on Stromelysin.

Regarding `O=C(NCC[C@@H](C(=O)NO)[C@]1(CCCO)CCN(CCc2ccccc2)C1=O)c1ccc(F)c(F)c1` (relative stereo) [Example 94, α-[2-[(3,4-Difluorobenzoyl)amino]ethyl]-N-hydroxy-3-(3-hydroxypropyl)-2-oxo-1-(2-phenylethyl)-3-pyrrolidineacetamide], the Ki on Collagenase is 13.4 nM; on Gelatinase it was 1.2 nM; on Stromelysin it was 16 nM.

In the case of `O=C(NCC[C@@H](C(=O)NO)[C@]1(CCO)CCN(CCc2ccccc2)C1=O)c1ccc(F)c(F)c1` (relative stereo) [Example 95, α-[2-[(3,4-Difluorobenzoyl)amino]ethyl]-N-hydroxy-3-(2-hydroxyethyl)-2-oxo-1-(2-phenylethyl)-3-pyrrolidineacetamide], the Ki amounted to 25 nM at Collagenase, 13 nM at Gelatinase and 119 nM at Stromelysin.

In the case of `CC(C)CC1(CC(=O)NO)CCN(CCc2ccccc2)C1=O` (stereo not drawn) [Example 1, N-Hydroxy-3-(2-methylpropyl)-2-oxo-1-(2-phenylethyl)-3-pyrrolidineacetamide], the Ki on Collagenase stood at 2300 nM; on Gelatinase, 3550 nM; on Stromelysin, 27200 nM.

`CC(C)C[C@@]1(CC(=O)NO)CCN(CCc2ccccc2)C1=O` [Example 2, (3S)-N-Hydroxy-3-(2-methylpropyl)-2-oxo-1-(2-phenylethyl)-3-pyrrolidineacetamide]: the Ki at Collagenase came out at 1040 nM; at Gelatinase it was 3290 nM; at Stromelysin, 20200 nM.

As to `CC(C)CC1(C(C)C(=O)NO)CCN(CCc2ccccc2)C1=O` (stereo not drawn) [Example 3, N-Hydroxy-α-methyl-3-(2-methylpropyl)-2-oxo-1-(2-phenylethyl)-3-pyrrolidineacetamide], the Ki is 4230 nM at Collagenase, 11700 nM at Gelatinase and 10900 nM on Stromelysin.

In the case of `CNC(=O)CN1CCC(CC(=O)NO)(CC(C)C)C1=O` (stereo not drawn) [Example 20, N^3 -Hydroxy-N^1-methyl-3-(2-methylpropyl)-2-oxo-1,3-pyrrolidinediacetamide], the figures for the inhibition constant Ki on Collagenase, at Gelatinase and at Stromelysin were 579 nM, 3100 nM and 16600 nM, respectively.

Consider `CNC(=O)C(Cc1ccccc1)N1CCC(CC(=O)NO)(CC(C)C)C1=O` (stereo not drawn) [Example 21, N^3 -Hydroxy-N^1-methyl-3-(2-methylpropyl)-2-oxo-α^1-(phenylmethyl)-1,3-pyrrolidinediacetamide], for which the figures for the Ki at Collagenase, on Gelatinase and at Stromelysin were 22 nM, 49 nM and 2080 nM, respectively.

For `CC(C)CC1(CC(=O)NO)CCN(Cc2ccccc2)C1=O` (stereo not drawn) [Example 23, N-Hydroxy-3-(2-methylpropyl)-2-oxo-1-(phenylmethyl)-3-pyrrolidineacetamide], the Ki at Collagenase worked out at 453 nM; at Gelatinase it was 1560 nM; at Stromelysin it was 4190 nM.

In the case of `CNC(=O)[C@H](Cc1ccccc1)N1CC[C@](CC(=O)NO)(CC(C)C)C1=O` [Example 30, [S-(R*,R*)]-N^3 -Hydroxy-N^1-methyl-3-(2-methylpropyl)-2-oxo-α^1-(phenylmethyl)-1,3-pyrrolidinediacetamide], the results for the Ki at Collagenase, at Gelatinase and at Stromelysin were 16 nM, 24 nM and 1050 nM, respectively.
